The values that follow come from PubChem BioAssay AID1259407 (Chemical Carcinogenesis Research Information System (CCRIS), 2018).

This data set deals with CCRIS mutagenicity, Ames/micronucleus/aberration tests. As to the kind of experiment: CCRIS mutagenicity studies.

Calls of active or inactive are those of the source. The rule behind the calls is not given here.

With `CC(=O)O`, the mutagenic call (Test System: AMES SALMONELLA TYPHIMURIUM, Strain/Indicator: TA97, Metabolic Activation: HAMSTER, LIVER, S-9, AROCLOR 1254 (10%), Method: PREINCUBATION) is “inactive; negative”; the mutagenic call (Test System: AMES SALMONELLA TYPHIMURIUM, Strain/Indicator: TA97, Metabolic Activation: HAMSTER, LIVER, S-9, AROCLOR 1254 (30%), Method: PREINCUBATION) is “inactive; negative”; the mutagenic call (Test System: AMES SALMONELLA TYPHIMURIUM, Strain/Indicator: TA97, Metabolic Activation: NONE, Method: PREINCUBATION) is “inactive; negative”; the mutagenic call (Test System: AMES SALMONELLA TYPHIMURIUM, Strain/Indicator: TA97, Metabolic Activation: RAT, LIVER, S-9, AROCLOR 1254 (10%), Method: PREINCUBATION) is “inactive; negative”; the mutagenic call (Test System: AMES SALMONELLA TYPHIMURIUM, Strain/Indicator: TA97, Metabolic Activation: RAT, LIVER, S-9, AROCLOR 1254 (30%), Method: PREINCUBATION) is “inactive; negative”; the mutagenic call (Test System: AMES SALMONELLA TYPHIMURIUM, Strain/Indicator: TA97, Metabolic Activation: RAT, LIVER, S-9, AROCLOR 1254, Method: PREINCUBATION) is “inactive; negative”. For the same compound, the mutagenic call is “inactive; negative” (Test System: AMES SALMONELLA TYPHIMURIUM, Strain/Indicator: TA98, Metabolic Activation: HAMSTER, LIVER, S-9, AROCLOR 1254 (10%), Method: PREINCUBATION); “inactive; negative” (Test System: AMES SALMONELLA TYPHIMURIUM, Strain/Indicator: TA98, Metabolic Activation: HAMSTER, LIVER, S-9, AROCLOR 1254 (30%), Method: PREINCUBATION); “inactive; negative” (Test System: AMES SALMONELLA TYPHIMURIUM, Strain/Indicator: TA98, Metabolic Activation: NONE, Method: PREINCUBATION); “inactive; negative” (Test System: AMES SALMONELLA TYPHIMURIUM, Strain/Indicator: TA98, Metabolic Activation: RAT, LIVER, S-9, AROCLOR 1254 (10%), Method: PREINCUBATION); “inactive; negative” (Test System: AMES SALMONELLA TYPHIMURIUM, Strain/Indicator: TA98, Metabolic Activation: RAT, LIVER, S-9, AROCLOR 1254 (30%), Method: PREINCUBATION); “inactive; negative” (Test System: AMES SALMONELLA TYPHIMURIUM, Strain/Indicator: TA100, Metabolic Activation: HAMSTER, LIVER, S-9, AROCLOR 1254 (10%), Method: PREINCUBATION). Moreover, the mutagenic call was “inactive; negative” (Test System: AMES SALMONELLA TYPHIMURIUM, Strain/Indicator: TA100, Metabolic Activation: HAMSTER, LIVER, S-9, AROCLOR 1254 (30%), Method: PREINCUBATION); “inactive; negative” (Test System: AMES SALMONELLA TYPHIMURIUM, Strain/Indicator: TA100, Metabolic Activation: NONE, Method: PREINCUBATION); “inactive; negative” (Test System: AMES SALMONELLA TYPHIMURIUM, Strain/Indicator: TA100, Metabolic Activation: RAT, LIVER, S-9, AROCLOR 1254 (10%), Method: PREINCUBATION); “inactive; negative” (Test System: AMES SALMONELLA TYPHIMURIUM, Strain/Indicator: TA100, Metabolic Activation: RAT, LIVER, S-9, AROCLOR 1254 (30%), Method: PREINCUBATION); “inactive; negative” (Test System: AMES SALMONELLA TYPHIMURIUM, Strain/Indicator: TA102, Metabolic Activation: NONE, Method: PREINCUBATION); “inactive; negative” (Test System: AMES SALMONELLA TYPHIMURIUM, Strain/Indicator: TA102, Metabolic Activation: RAT, LIVER, S-9, AROCLOR 1254, Method: PREINCUBATION). Besides, the mutagenic call (Test System: AMES SALMONELLA TYPHIMURIUM, Strain/Indicator: TA1535, Metabolic Activation: HAMSTER, LIVER, S-9, AROCLOR 1254 (10%), Method: PREINCUBATION) was “inactive; negative”; the mutagenic call (Test System: AMES SALMONELLA TYPHIMURIUM, Strain/Indicator: TA1535, Metabolic Activation: HAMSTER, LIVER, S-9, AROCLOR 1254 (30%), Method: PREINCUBATION) is “inactive; negative”; the mutagenic call (Test System: AMES SALMONELLA TYPHIMURIUM, Strain/Indicator: TA1535, Metabolic Activation: NONE, Method: PREINCUBATION) is “inactive; negative”; the mutagenic call (Test System: AMES SALMONELLA TYPHIMURIUM, Strain/Indicator: TA1535, Metabolic Activation: RAT, LIVER, S-9, AROCLOR 1254 (10%), Method: PREINCUBATION) was “inactive; negative”; the mutagenic call (Test System: AMES SALMONELLA TYPHIMURIUM, Strain/Indicator: TA1535, Metabolic Activation: RAT, LIVER, S-9, AROCLOR 1254 (30%), Method: PREINCUBATION) is “inactive; negative”.
For the compound `CC(CN1CC(=O)NC(=O)C1)N1CC(=O)NC(=O)C1` (configuration not stated), the mutagenic call was “inactive; negative” (Test System: AMES SALMONELLA TYPHIMURIUM, Strain/Indicator: TA98, Metabolic Activation: NONE, Method: STANDARD PLATE); “inactive; negative” (Test System: AMES SALMONELLA TYPHIMURIUM, Strain/Indicator: TA98, Metabolic Activation: RAT, LIVER, S-9, AROCLOR 1254, Method: STANDARD PLATE); “inactive; negative” (Test System: AMES SALMONELLA TYPHIMURIUM, Strain/Indicator: TA100, Metabolic Activation: NONE, Method: STANDARD PLATE); “inactive; negative” (Test System: AMES SALMONELLA TYPHIMURIUM, Strain/Indicator: TA100, Metabolic Activation: RAT, LIVER, S-9, AROCLOR 1254, Method: STANDARD PLATE); “inactive; negative” (Test System: AMES SALMONELLA TYPHIMURIUM, Strain/Indicator: TA1535, Metabolic Activation: NONE, Method: STANDARD PLATE); “inactive; negative” (Test System: AMES SALMONELLA TYPHIMURIUM, Strain/Indicator: TA1535, Metabolic Activation: RAT, LIVER, S-9, AROCLOR 1254, Method: STANDARD PLATE). Moreover, the mutagenic call was “inactive; negative” (Test System: AMES SALMONELLA TYPHIMURIUM, Strain/Indicator: TA1537, Metabolic Activation: NONE, Method: STANDARD PLATE); “inactive; negative” (Test System: AMES SALMONELLA TYPHIMURIUM, Strain/Indicator: TA1537, Metabolic Activation: RAT, LIVER, S-9, AROCLOR 1254, Method: STANDARD PLATE); “inactive; negative” (Test System: AMES SALMONELLA TYPHIMURIUM, Strain/Indicator: TA1538, Metabolic Activation: NONE, Method: STANDARD PLATE); “inactive; negative” (Test System: AMES SALMONELLA TYPHIMURIUM, Strain/Indicator: TA1538, Metabolic Activation: RAT, LIVER, S-9, AROCLOR 1254, Method: STANDARD PLATE); “active; positive” (Test System: CHINESE HAMSTER V-79, Strain/Indicator: V-79/8-AZAGUANINE, Metabolic Activation: NONE, Method: STANDARD PLATE); “active; positive” (Test System: MOUSE LYMPHOMA, Strain/Indicator: L5178Y (TK+/TK-), Metabolic Activation: NONE, Method: SUSPENSION/PLATE).
For `NC(=O)c1nnn(Cc2cc(Cl)c(C(=O)c3ccc(Cl)cc3)c(Cl)c2)c1N`, the mutagenic call (Test System: Mouse lymphoma, Strain/Indicator: L5178Y (tk+/tk-), Metabolic Activation: None, Method: Suspension/plate) was “inactive; inconclusive (previous evaluation negative)” and the mutagenic call (Test System: Mouse lymphoma, Strain/Indicator: L5178Y (tk+/tk-), Metabolic Activation: Rat, Liver, S-9, Aroclor 1254, Method: Suspension/plate) is “inactive; negative”.
